The record followed here is US9670139B2, “Telomerase activating compounds and methods of use thereof” (BEN-GURION UNIVERSITY OF THE NEGEV RESEARCH AND DEVELOPMENT …, priority 2007, dated 2017).

The structures appear in SMILES notation.

The test system of one experiment is C. elegans. In words: Lifespan extension of nematodes (C. elegans). It is filed as in vivo. The conditions noted are these: 50 micromolar; for Lifespan extension (%): Table 2, versus untreated controls; for Lifespan %: table of scaffold drawing 36, mean lifespan versus control. As for the experimental part:
Nematodes (C. elegans) were administered tri-phenyl telomerase-activating compounds presented in the following tables, and telomerase activity and/or expression was measured in terms of nematode lifespan extension. Nematodes were grown with the activators at 50 micromolar concentration, and the mean, maximum and half-life for Compound 68 and Compound 77, two representative molecules, was measured versus that of the control (FIG. 8). Values represent mean lifespan.
Survival of the C. elegans, a nematode that normally survives for 12-14 days, represents an acceptable model for studying life extension. Nematodes were administered tri-phenyl telomerase-activating compounds and their effect on the nematode lifespan extension was determined. Nematodes were grown with the activators at a concentration of 50 micromolar, and mean, maximum and half-life were measured in comparison with untreated controls. Lifespan increased by 13-43% (Table 2), and the median lifespan increased approximately 2-fold (from 12 days to 22 days, as shown in FIG. 8).

Experiment [1] concerns telomerase. In words: Telomerase expression in rat brain cortex after subcutaneous injection (immunofluorescence). It is filed as in vivo. An excerpt: The effect of compounds of the present invention injected subcutaneously into female rats and adult male mice on telomerase expression in various regions of the brain was examined.
The test system of experiment [2] is murine B-cell leukemia lymphoma (BCL1) cells. Kind of experiment: BCL1 tumorigenicity in (BALB/c×C57BL/6)F1 mice. It is filed as in vivo, mouse. The conditions noted are these: mice inoculated with 10^5 BCL1 cells; Compound 77 10 mM. The method, then:
(BALB/c×C57BL/6)F1 mice were inoculated with 10^5 murine B-cell leukemia lymphoma (BCL1) cells. Splenomegaly and lymphocytosis (leukemia) developed in all controls and in mice treated with telomerase-activating compounds (40 or 80 mg/kg).

Experiment [3] is described as follows: Graft-versus-host disease (GVHD) induced by C57BL/6 spleen cells. It is filed as in vivo, mouse. The conditions noted are these: F1 mice inoculated with 30×10^6 C57BL/6 spleen cells. The source says:
(BALB/c×C57BL/6)F1 mice were inoculated with 30×10^6C57BL/6 spleen cells for induction of GVHD.

Another experiment relates to Human keratinocytes. Kind of experiment: Proliferation and survival of senescent human keratinocytes. It is filed as cell-based. The conditions noted are these: fifth passage keratinocytes. As for the experimental part: Human keratinocytes which had lost their ability to proliferate (in their fifth passage) were obtained from a local skin bank and treated with Compound 68 for 24 h. Cell viability, cell number and morphology was examined.

Experiment [4] concerns telomerase. In words: Telomerase expression in mouse brain regions after subcutaneous injection (immunofluorescence). It is filed as in vivo. The conditions noted are these: three-month-old male mice, 24 h. The method, then: Compound 79 was injected subcutaneously into three-month-old male mice. The mice were sacrificed 24 h later and the cortex, cerebellum, hippocampus, hypothalamus, brain stem and olfactory bulb isolated and subjected to immunofluorescence. […] This activation appeared to be specific for certain neuronal cells.

The subject of another experiment is mouse cerebellum. In words: Prevention of glutamate-induced apoptosis in mouse cerebellum slices. The conditions noted are these: 6 mg/kg, 24 h; slices treated with glutamate 30 min. It is filed as in vivo. As for the experimental part: The ability of compounds of the present invention to prevent glutamate-induced apoptosis in mouse cerebellum was examined. Mice were injected with 6 mg/kg of Compound 79 or with vehicle only. Mice were sacrificed 24 h after treatment and their brains were removed. Cerebellum slices were prepared and subjected to glutamate treatment at various concentrations for 30 min. Sections were stained with propidium iodide and the number of apoptotic cells was counted and calculated using specific software (Jimage). Prevention of apoptosis in mice treated with compounds of the present invention was calculated as a percentage relative to control mice (FIG. 13). This supports a role for compounds of the present invention in treating seizures, stroke, Alzheimer's disease, epilepsy, schizophrenia, and alcohol and opiate addition.

Experiment [5] has as its system telomerase. In words: Telomerase expression in mouse heart protein extracts. It is filed as in vivo. The conditions noted are these: after injection, one mouse. The method, then: The activation of telomerase by compounds of the present invention in heart protein extracts derived from one mouse was measured (FIG. 14). […] This supports a role for compounds of the present invention in treating infarct, ischemia, myocarditis, etc.

The target in experiment [6] is T1, telomerase (Homo sapiens, UniProt O14746). Kind of experiment: Real time PCR quantification of telomerase activity in hMSC nuclear extracts. It is filed as cell-based. Set-up: endogenous in cells. The conditions noted are these: 250 nM. The method, then:
FIG. 5: Activation of telomerase expression in hMSC by compounds of the present invention. A.—hMSC were treated with 250 nM of Compounds 79, 77 and 68 for 6 hours. Immunofluorescence was performed with anti-hTERT antibody (red) and the nucleus was stained with DAPI (blue). B. hMSC treated with compound 79 for 6 and 24 h. Telomerase activity was measured by real time PCR using a quantitative telomerase detection kit (Allied Biotech Inc., USA).
The possibility that compounds of the present invention enhance hMSC survival and proliferation by activation of TERT was examined by culturing hMSC (p 3) in a tissue culture chamber slide at 17×10^3 cells/well for 60 h. Compounds of the present invention were added for 6 h with fresh medium. Immunofluorescence with anti-hTERT antibody (first antibody) and cy3 fluorescent secondary antibody was carried out. The nucleus was stained with DAPI. Compounds of the present invention activated telomerase expression in hMSC (FIG. 5). […] Degree of activation of telomerase expression was Compound 68>79>77. Quantification of telomerase activity in hMSC was performed by Real time PCR (Quantification telomerase detection kit) in nuclear extracts derived from hMSC treated with compound 79 (250 nM) for 6 or 24 h. Compound 79 enhanced telomerase activity in hMSC by 12- or 6-fold in a time-dependent manner (FIG. 5B).

In experiment [7] the target is T1, telomerase. In words: Telomerase activity in RPE cells (quantitative telomerase detection kit, real time PCR). It is filed as cell-based. More on the design: endogenous in cells; host or cells: human retinal pigmented epithelial (RPE) cells. The conditions noted are these: FIG. 7B. An excerpt:
FIG. 7: A. The effect of compounds of the present invention on human retinal pigmented epithelial cells under oxidative stress. B. The effect of compounds on telomerase activity in RPE cells (measured by a quantitative telomerase detection kit-real time PCR).
Chronic exposure of human retinal pigmented epithelial (RPE) cells to oxidative stress predisposes them to the development of age-related macular degeneration (AMD). Human RPE cells were exposed to oxidative stress by treatment with H2O2 (1 mM) for 24 hours, and H2O2 (0.5 mM) for another 24 hours. The cells were then treated daily for two days with the indicated compounds in the absence of H2O2. Increased cell growth was observed as a consequence of treatment with the compounds (FIG. 7A). Telomerase activity was enhanced in RPE cells treated with compounds 68 and 79 by 30- and 50-fold, respectively (FIG. 7B).

T1 sequence (O14746 whole entry): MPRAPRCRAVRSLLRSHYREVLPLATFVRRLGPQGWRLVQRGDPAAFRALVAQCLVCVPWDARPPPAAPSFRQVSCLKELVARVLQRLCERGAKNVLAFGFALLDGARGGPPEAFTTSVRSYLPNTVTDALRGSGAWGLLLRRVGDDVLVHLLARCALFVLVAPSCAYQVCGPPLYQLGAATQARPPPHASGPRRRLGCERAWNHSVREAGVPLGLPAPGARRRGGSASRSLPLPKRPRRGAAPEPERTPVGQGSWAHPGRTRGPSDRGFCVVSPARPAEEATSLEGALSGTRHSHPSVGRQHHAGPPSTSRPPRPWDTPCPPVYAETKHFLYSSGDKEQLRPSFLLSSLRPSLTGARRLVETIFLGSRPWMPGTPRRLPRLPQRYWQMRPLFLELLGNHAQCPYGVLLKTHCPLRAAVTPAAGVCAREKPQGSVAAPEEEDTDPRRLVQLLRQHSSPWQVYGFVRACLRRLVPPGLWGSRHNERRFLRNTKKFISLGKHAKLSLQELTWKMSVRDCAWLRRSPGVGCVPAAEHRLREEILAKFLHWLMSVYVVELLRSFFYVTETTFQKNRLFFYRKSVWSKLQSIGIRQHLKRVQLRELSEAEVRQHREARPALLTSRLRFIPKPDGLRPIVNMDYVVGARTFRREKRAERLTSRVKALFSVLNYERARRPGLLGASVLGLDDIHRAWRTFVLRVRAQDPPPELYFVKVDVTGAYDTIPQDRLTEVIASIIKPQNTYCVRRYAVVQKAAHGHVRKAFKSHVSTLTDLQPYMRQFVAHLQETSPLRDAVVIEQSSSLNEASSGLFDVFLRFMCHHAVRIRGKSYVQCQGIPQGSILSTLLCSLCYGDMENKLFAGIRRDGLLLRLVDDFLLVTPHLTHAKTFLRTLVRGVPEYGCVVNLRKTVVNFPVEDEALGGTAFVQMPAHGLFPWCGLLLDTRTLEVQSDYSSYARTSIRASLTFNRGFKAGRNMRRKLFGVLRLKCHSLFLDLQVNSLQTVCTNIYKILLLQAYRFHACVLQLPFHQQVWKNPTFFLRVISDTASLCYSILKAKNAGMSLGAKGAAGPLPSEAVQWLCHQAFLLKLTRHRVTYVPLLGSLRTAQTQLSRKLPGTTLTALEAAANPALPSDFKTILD

As for `CN(C)Cc1cc(C(C)(c2cc(CN(C)C)c(O)c(CN(C)C)c2)c2cc(CN(C)C)c(O)c(CN(C)C)c2)cc(CN(C)C)c1O` [Compound 77], in the experiment with C. elegans, the “Lifespan extension (%)” value is 43% and the Lifespan % amounted to 43%. Further, the “expression of telomerase in the brain cortex” value in the experiment on telomerase [1] is “significantly activated”. The “Survival Median (range)” value in experiment [2] is recorded as 26 (22-41). In [3], the “signs of acute GVHD (weight loss) versus untreated controls” value is listed as “more severe signs of acute GVHD”.
Turning to `CCOCc1cc(C(C)(c2cc(COCC)c(O)c(COCC)c2)c2cc(COCC)c(O)c(COCC)c2)cc(COCC)c1O` [Compound 79], in the experiment on C. elegans, the “Lifespan extension (%)” value was determined as 16% and the Lifespan % was found to be 16%. The “cell survival effect on keratinocytes (comparison)” value with Human keratinocytes was “better cell survival effect than Compound 68”. Also, the “expression of telomerase in the brain cortex” value in the experiment on telomerase [1] is on record as “significantly activated”. Further, in the experiment on telomerase [4], the “telomerase expression in motor-neuronal cells of the brain stem” value is given as “increased telomerase expression”; the “telomerase expression in the various brain regions” value was “significantly and dramatically increased”. Moreover, the “glutamate-induced apoptosis in mouse cerebellum” value in the experiment with mouse cerebellum is “Prevention of glutamate-induced apoptosis”. Also, the heart telomerase expression result in the experiment with telomerase [5] is given as “significant increase”. Moreover, the “enhancement of telomerase activity in hMSC” value on telomerase [6] (6 h) came to 12 fold. The “enhancement of telomerase activity in hMSC” value on telomerase [6] (24 h) turned out to be 6 fold. The “enhancement of telomerase activity in RPE cells” value at telomerase [7] turned out to be 50 fold.
